For 47 molecules, IC50 results are on record in US20090197856A1, “ANTIVIRAL COMPOUNDS” (Genelabs Technologies, Inc., priority 2007, published 2009).

The structures appear in SMILES notation.

One test has as its target T1, HCV-NS5b (Hepatitis C virus genotype 1b, UniProt Q9WMX2).
T1 construct: (His)6 (C); made in house; host or cells: XL-1 cells (E. coli), IPTG-inducible plasmid
In words: HCV-NS5b enzyme assay using homopolymer substrate. In kind it is biochemical.
Settings: not given
The source says: The coding sequence of NS5b protein was cloned by PCR from pFKI389luc/NS3-3′/ET as described by Lohmann, V., et al. (1999) Science 285, 110-113 using the primers shown on page 266 of WO 2005/012288
The cloned fragment is missing the C terminus 21 amino acid residues. The cloned fragment was inserted into an IPTG-inducible (isopropyl-β-D-thiogalactopyranoside) expression plasmid that provides an epitope tag (His)6 at the carboxy terminus of the protein.
The recombinant enzyme was expressed in XL-1 cells and after induction of expression, the protein was purified using affinity chromatography on a nickel-NTA (nitrilotriacetic acid) column. Storage condition was 10 mM Tris-HCl pH 7.5, 50 mM NaCl, 0.1 mM EDTA (ethylenediaminetetraacetic acid), 1 mM DTT (dithiothreotol), 20% glycerol at −20° C.
The polymerase activity was assayed by measuring incorporation of radiolabeled UTP into a RNA product using a biotinylated, homopolymeric template. The template was formed by annealing adenosine homopolymer to uridine 20-mer capped with a 5′-biotin group (biotin-U^20) in the ratio of 1:4. Typically, the assay mixture (50 μL) contained 25 mM Tris-HCl (pH 7.5), 40 mM KCl, 0.3 mM MgCl2, 0.05 mM EDTA, 0.2 unit/μL Superase RNAse Inhibitor, 5 mM DTT, 30 μM UTP (Uridine triphosphate), including [^3H]-UTP (uridine triphosphate) at 0.4 μCi/μL with final concentration of 1 μM, and 50 nM of homopolymeric template. Test compounds were initially dissolved in 100% DMSO and further diluted in aqueous buffer containing 5% DMSO. Typically, compounds were tested at concentrations between 2 nM and 50 μM. Reactions were started with addition of enzyme and allowed to continue at 30° C. for 90 minutes. Reactions were quenched with 8 μL of 100 mM EDTA and reaction mixtures (30 μL) were transferred to streptavidin-coated scintillation proximity microtiter plates (FlashPlates) and incubated at room temperature overnight. Incorporation of radioactivity was determined by scintillation counting.
Inhibitor IC50 values were determined by adding test compound as ten point, two-fold serial dilutions in 100% DMSO with a final reaction concentration of 5%. IC50 was calculated by plotting the % inhibition against compound concentration and fitting the data to a constrained four parameter sigmoidal curve, equivalent to the “four parameter logistic equation”:
Where Bottom is the minimum Y value, Top is the maximum Y value, and Hillslope is the slope of the linear portion of the semi-log curve. Top and Bottom were constrained to values of 0% and 100%, respectively. These analyses were performed using Graphpad Prism v.4.0 (Graphpad Software, Inc.) in conjunction with DS Accord for EXCEL 6.0 (Accelrys, Microsoft Corp.).
The table below lists the IC50 values of compounds determined using the homopolymer substrates.
In general, IC50 refers to the concentration that gives 50% inhibition. The molecule `O=C(O)c1ccc2c(C3CCCCC3)c3n(c2c1)CCCn1cc(C2=CCNCC2)c2cccc-3c21` [Compound 397] came in with an IC50 of 218 nM.
Still for that read-out and setting: the result for `CC(=O)c1cn2c3c(cccc13)-c1c(C3CCCCC3)c3ccc(C(=O)O)cc3n1CCC2` [Compound 402] reads 168 nM.
Take `CCN(CC)CCC(=O)c1cn2c3c(cccc13)-c1c(C3CCCCC3)c3ccc(C(=O)O)cc3n1CCC2` [Compound 429]: the IC50 worked out at 99 nM.
On the same count and under the same terms, to `CC(C)NCCC(=O)c1cn2c3c(cccc13)-c1c(C3CCCCC3)c3ccc(C(=O)O)cc3n1CCC2` [Compound 430] belongs 73 nM; to `O=C(O)c1ccc2c(C3CCCCC3)c3n(c2c1)CCCn1cc(C(=O)N2CCCC2)c2cccc-3c21` [Compound 437], 151 nM; to `CCN(CC)C(=O)c1cn2c3c(cccc13)-c1c(C3CCCCC3)c3ccc(C(=O)O)cc3n1CCC2` [Compound 438], 69 nM.
The molecule `CN1CCN(C(=O)c2cn3c4c(cccc24)-c2c(C4CCCCC4)c4ccc(C(=O)O)cc4n2CCC3)CC1` [Compound 439] showed an IC50 of 182 nM.
Same read-out and setting: to `CN(C)CCNC(=O)c1cn2c3c(cccc13)-c1c(C3CCCCC3)c3ccc(C(=O)O)cc3n1CCC2` [Compound 440] belongs 107 nM; to `CC(C)N(C(=O)c1cn2c3c(cccc13)-c1c(C3CCCCC3)c3ccc(C(=O)O)cc3n1CCC2)C(C)C` [Compound 441], 271 nM; to `COCCNC(=O)c1cn2c3c(cccc13)-c1c(C3CCCCC3)c3ccc(C(=O)O)cc3n1CCC2` [Compound 442], 123 nM.

Staying with this test, now noted: homopolymer substrate, [3H]-UTP incorporation, 30° C., 90 minutes; read-out: IC50.
Consider `O=C(O)c1ccc2c(C3CCCCC3)c3n(c2c1)CCCn1cc(CN2CCC(O)C2)c2cccc-3c21` (centres unmarked) [Compound 390], for which the IC50 stood at 237 nM.
As for `CS(=O)(=O)CCNCc1cn2c3c(cccc13)-c1c(C3CCCCC3)c3ccc(C(=O)O)cc3n1CCC2` [Compound 391], the IC50 was determined as 211 nM.
`C[C@@H]1CC[C@@H](C)N1Cc1cn2c3c(cccc13)-c1c(C3CCCCC3)c3ccc(C(=O)O)cc3n1CCC2` [Compound 392]: the 50% inhibitory concentration (IC50) turned out to be 105 nM.
Take `CCC(C)(C)NCc1cn2c3c(cccc13)-c1c(C3CCCCC3)c3ccc(C(=O)O)cc3n1CCC2` [Compound 393]: the IC50 came out at 138 nM.
As for `O=C(O)c1ccc2c(C3CCCCC3)c3n(c2c1)CCCn1cc(CN2CCS(=O)(=O)CC2)c2cccc-3c21` [Compound 394], the IC50 was 159 nM.
For the molecule `NCc1cn2c3c(cccc13)-c1c(C3CCCCC3)c3ccc(C(=O)O)cc3n1CCC2` [Compound 395], the IC50 was determined as 140 nM.
Regarding `CC1Cn2cc(CN3CCCCC3)c3cccc(c32)-c2c(C3CCCCC3)c3ccc(C(=O)O)cc3n2C1` (centres unmarked) [Compound 396], the IC50 came out at 126 nM.
On the same count and under the same terms, the result for `O=C(O)c1ccc2c(C3CCCCC3)c3n(c2c1)CCCn1cc(C2CCNCC2)c2cccc-3c21` [Compound 398] reads 204 nM; that for `CN1CCC(c2cn3c4c(cccc24)-c2c(C4CCCCC4)c4ccc(C(=O)O)cc4n2CCC3)CC1` [Compound 399], 220 nM.
The same measure, in the same setting: to `CC(C)N1CCC(c2cn3c4c(cccc24)-c2c(C4CCCCC4)c4ccc(C(=O)O)cc4n2CCC3)CC1` [Compound 400] belongs 250 nM.
Same read-out and setting: the result for `O=C(O)c1ccc2c(C3CCCCC3)c3n(c2c1)CCCn1cc(C2CCN(CCO)CC2)c2cccc-3c21` [Compound 401] reads 140 nM.
On to `CCC1CN2CCCn3c(c(C4CCCCC4)c4ccc(C(=O)O)cc43)-c3cccc1c32` (centres unmarked) [Compound 403], for which the IC50 was 207 nM.
Take `O=C(O)c1ccc2c(C3CCCCC3)c3n(c2c1)CCCn1c(C(=O)NCCN2CCCCC2)cc2cccc-3c21` [Compound 404]: the IC50 is 257 nM.
The same measure, in the same setting: the result for `CN(C)C(=O)c1cc2cccc3c2n1CCCn1c-3c(C2CCCCC2)c2ccc(C(=O)O)cc21` [Compound 405] reads 139 nM; that for `O=C(O)c1ccc2c(C3CCCCC3)c3n(c2c1)CCCn1c(C(=O)N2CCCCC2)cc2cccc-3c21` [Compound 406], 136 nM.
Take `O=C(O)c1ccc2c(C3CCCCC3)c3n(c2c1)CCCn1c(C(=O)O)cc2cccc-3c21` [Compound 407]: the IC50 was determined as 253 nM.
Still for that read-out and setting: the result for `CCN(CC)C1CCN(C(=O)c2cc3cccc4c3n2CCCn2c-4c(C3CCCCC3)c3ccc(C(=O)O)cc32)CC1` [Compound 408] reads 142 nM.
The same measure, in the same setting: to `CN1CCN(C(=O)c2cc3cccc4c3n2CCCn2c-4c(C3CCCCC3)c3ccc(C(=O)O)cc32)CC1` [Compound 409] belongs 114 nM; to `CCN(C)Cc1c(C(=O)N(C)C)n2c3c(cccc13)-c1c(C3CCCCC3)c3ccc(C(=O)O)cc3n1CCC2` [Compound 410], 384 nM.
The same measure, in the same setting: the result for `CN(C)Cc1cc2cccc3c2n1CCCn1c-3c(C2CCCCC2)c2ccc(C(=O)O)cc21` [Compound 411] reads 277 nM.
Turning to `CN1CCN(C(=O)c2c(Cl)c3cccc4c3n2CCCn2c-4c(C3CCCCC3)c3ccc(C(=O)O)cc32)CC1` [Compound 412], the IC50 was 179 nM.
With `NC(=O)c1cc2cccc3c2n1CCCn1c-3c(C2CCCCC2)c2ccc(C(=O)O)cc21` [Compound 413], the IC50 amounted to 105 nM.
The same measure, in the same setting: the result for `O=C(O)c1ccc2c(C3CCCCC3)c3n(c2c1)CCCn1c(CN2CCCCC2)cc2cccc-3c21` [Compound 414] reads 98 nM; that for `CN1CCN(Cc2cc3cccc4c3n2CCCn2c-4c(C3CCCCC3)c3ccc(C(=O)O)cc32)CC1` [Compound 415], 170 nM; that for `O=C(O)c1ccc2c(C3CCCCC3)c3n(c2c1)CCCn1c2c-3cccc2c2c(=O)[nH][nH]c(=O)c21` [Compound 416], 146 nM.
On to `CNC(=O)c1cc2cccc3c2n1CCCn1c-3c(C2CCCCC2)c2ccc(C(=O)O)cc21` [Compound 417], for which the IC50 worked out at 99 nM.
Regarding `NCc1cc2cccc3c2n1CCCn1c-3c(C2CCCCC2)c2ccc(C(=O)O)cc21` [Compound 418], the IC50 was 144 nM.
The same measure, in the same setting: to `CC(C)N1Cc2c(n3c4c(cccc24)-c2c(C4CCCCC4)c4ccc(C(=O)O)cc4n2CCC3)C1=O` [Compound 419] belongs 180 nM.
The same measure, in the same setting: the result for `O=C(O)c1ccc2c(C3CCCCC3)c3n(c2c1)CCCn1c2c(c4cccc-3c41)CN(C1CCCCC1)C2=O` [Compound 421] reads 472 nM.
Same read-out and setting: to `O=C(O)c1ccc2c(C3CCCCC3)c3n(c2c1)CC1(CC1)Cn1cc(CN2CCCCC2)c2cccc-3c21` [Compound 427] belongs 121 nM; to `CCN(C)Cc1cn2c3c(cccc13)-c1c(C3CCCCC3)c3ccc(C(=O)O)cc3n1CC1(CC1)C2` [Compound 428], 166 nM.
`O=C(O)c1ccc2c(C3CCCCC3)c3n(c2c1)CCCn1cc(/C(Cl)=C/CN2CCCCC2)c2cccc-3c21` [Compound 431]: the IC50 came to 201 nM.
On the same count and under the same terms, the result for `CCN(CC)CC#Cc1cn2c3c(cccc13)-c1c(C3CCCCC3)c3ccc(C(=O)O)cc3n1CCC2` [Compound 432] reads 324 nM.
`CC(C)NCCCc1cn2c3c(cccc13)-c1c(C3CCCCC3)c3ccc(C(=O)O)cc3n1CCC2` [Compound 433]: the IC50 worked out at 181 nM.
The same measure, in the same setting: to `O=C(O)c1ccc2c(C3CCCCC3)c3n(c2c1)CCCn1cc(CCCN2CCCCC2)c2cccc-3c21` [Compound 434] belongs 172 nM; to `O=C(O)c1ccc2c(C3CCCCC3)c3n(c2c1)CCCn1cc(CCCN2CCCC2)c2cccc-3c21` [Compound 435], 171 nM; to `CCN(CC)CCCc1cn2c3c(cccc13)-c1c(C3CCCCC3)c3ccc(C(=O)O)cc3n1CCC2` [Compound 436], 333 nM.
